In patent publication US20090227556A1, “RECEPTOR TYROSINE KINASE INHIBITORS COMPRISING PYRIDINE AND PYRIMIDINE DERIVATIVES” (Eisai R&D Management Co., Ltd., priority 2008, published 2009):

Experiments:
VEGFR-1 (FLT 1) = target: T1, VEGFR-1 (FLT 1) (Homo sapiens, UniProt P17948); test: Tyrosine kinase inhibition, mobility shift assay (MSA); format: biochemical; conditions: recombinant human kinase
T1 construct: purchased Carna Biosciences Inc. 08-189
Experimental: (§1) A test compound was dissolved in dimethyl sulfoxide to make a 10 mM solution, which was stored in a dark place at 4° C. until use.
(§2) Protein tyrosine kinases (recombinant human kinases) used in the study were the following products from Carna Biosciences Inc. (Kobe, Japan).
(§3) VEGFR-1 (FLT 1) (product number: 08-189) VEGFR-3 (FLT 4) (product number: 08-190) RON (product number: 08-152) RET (product number: 08-159) KIT (product number: 08-156)
(§4) Kinase activity was measured in a mobility shift assay (MSA) method (J. Biomolecular Screening, 11, 359-368, 2006) using QuickScout Screening Assist™ (Carna Biosciences Inc., commercial kit), and enzyme-linked immunoassay (ELISA).
5 μl of the test substance solution obtained by dissolving or suspending in an assay buffer (20 mM Hepes, 0.01% Triton X-100, 1 mM dithiothreitol, pH 7.4) (4× final concentration) or 5 μl of a solvent (4% dimethyl sulfoxide-assay buffer) was dispensed into a polypropylene 384-well plate (Greiner Bio-One, product number 781280). Then, 5 μl of QuickScout Screening Assist™ MSA in an ATP/substrate/metal solution was added. Additionally, 10 μl of the kinase solution diluted with the assay buffer was added to initiate a reaction. For a blank, only 10 μl of the assay buffer was added. The kinase concentration and reaction conditions were in accordance with the protocol of QuickScout Screening Assist™ MSA. Then, the reaction was terminated by addition of 60 μl of a termination buffer of the QuickScout Screening Assist™ MSA, and the amount of a substrate (S) and a phosphorylated substrate (P) in the reaction solution were determined using LabChip3000 (Caliper Life Science, Massachusetts, U.S.A.) in accordance with the protocol of QuickScout Screening Assist™ MSA. The amounts of the S and P were represented by respective separated peak height. […] It was on the condition that the signal was determined as P/(P+S).

KIT = target: T2, KIT (Homo sapiens, UniProt P10721); test: Inhibitory action on KIT (ELISA); format: biochemical; conditions: recombinant human kinase
T2 construct: purchased Carna Biosciences Inc. 08-156
T2 sequence (P10721 26-976): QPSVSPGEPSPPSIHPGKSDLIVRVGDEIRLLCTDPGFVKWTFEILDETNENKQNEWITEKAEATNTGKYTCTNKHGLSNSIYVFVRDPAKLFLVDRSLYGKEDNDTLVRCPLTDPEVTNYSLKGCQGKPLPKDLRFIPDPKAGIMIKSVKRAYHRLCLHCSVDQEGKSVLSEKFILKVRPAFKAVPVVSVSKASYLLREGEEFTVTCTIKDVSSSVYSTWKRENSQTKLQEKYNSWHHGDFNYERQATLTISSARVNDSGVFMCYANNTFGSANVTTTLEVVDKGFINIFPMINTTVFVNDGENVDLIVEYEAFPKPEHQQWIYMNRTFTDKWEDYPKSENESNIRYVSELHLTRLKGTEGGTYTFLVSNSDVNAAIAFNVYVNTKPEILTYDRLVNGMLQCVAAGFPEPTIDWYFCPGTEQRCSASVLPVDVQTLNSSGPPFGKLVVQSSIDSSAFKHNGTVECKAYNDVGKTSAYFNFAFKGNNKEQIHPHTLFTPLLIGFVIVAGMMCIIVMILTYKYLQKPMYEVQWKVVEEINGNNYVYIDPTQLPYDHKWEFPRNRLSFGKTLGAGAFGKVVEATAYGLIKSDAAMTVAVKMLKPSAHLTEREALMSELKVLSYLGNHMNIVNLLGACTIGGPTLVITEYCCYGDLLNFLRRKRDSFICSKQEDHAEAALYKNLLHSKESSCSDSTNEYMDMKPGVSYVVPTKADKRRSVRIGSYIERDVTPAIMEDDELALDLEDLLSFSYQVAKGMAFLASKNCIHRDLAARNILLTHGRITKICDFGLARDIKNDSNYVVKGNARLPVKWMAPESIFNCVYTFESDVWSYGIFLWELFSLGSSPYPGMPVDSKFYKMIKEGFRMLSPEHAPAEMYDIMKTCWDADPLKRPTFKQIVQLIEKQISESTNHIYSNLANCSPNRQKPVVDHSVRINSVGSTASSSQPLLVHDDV
Experimental: as §1, §2, §3, §4
10 μl of the test substance solution obtained by dissolving or suspending in the assay buffer (15 mM Tris, 0.01% Tween 20, 2 mM DTT, pH 7.5) (4× final concentration), or 10 μl of a solvent (4% dimethyl sulfoxide-assay buffer) was dispensed into a DELFIA Streptavidin-coated clear plate (PerkinElmer Inc., product number 4009-0010). Then, 10 μl of an ATP/substrate/metal solution of QuickScout Screening Assist™ ELISA was added. Additionally, 20 μl of the kinase solution diluted with the assay buffer was added to initiate a reaction. For a blank, only 20 μl of the assay buffer was added. The assay method was in accordance with the protocol of QuickScout Screening Assist™ ELISA. After the reaction, the absorbance at 450 nm in each well was measured using SpectraMax (Molecular Devices, California, U.S.A).

[1] = tested on: Human umbilical vein endothelial cells (HUVECs); test: Growth inhibitory activity on human umbilical vein endothelial cells stimulated by VEGF; format: cell-based; conditions: HUVEC, 72 h, 3 days, Cell Counting Kit-8
Experimental: Human umbilical vein endothelial cells (HUVECs) were isolated according to the reported method (Shin-seikagaku jikken kouza “saibou baiyou gijutu (Cell culturing techniques)” p. 197-202) and incubated to confluence using an EGM-2 culture medium (obtained from Sanko Junyaku Co., Ltd.) in a 5% CO2 incubator (37° C.). The HUVECs were collected by a trypsin-EDTA treatment and washed with a culture medium (2% fetal bovine serum-supplemented Human endothelial SFM basal medium, obtained from Invitrogen Corp.), followed by suspending them in the medium to count the cell number. By diluting it with the medium, a 2×10^4 cells/ml cell suspension was prepared. The cell suspension was dispensed into a 96-well plate (obtained from FALCON) by 100 μl each, and incubated at 37° C. in a 5% CO2 incubator overnight. After the incubation, 50 μl of the test substance diluted with the medium was added to each well, and 50 μL of 80 ng/ml human recombinant VEGF (obtained from R&D systems, Inc.) diluted with the medium was added and further incubated for 3 days in the 5% CO2 incubator (37° C.). After the incubation, 20 μl of Cell Counting Kit-8 (obtained from DOJINDO Laboratories) was added to each well, which were incubated for about 2 hours in the 5% CO2 incubator (37° C.). After the incubation, the absorbance of the each well was measured using a plate reader MTP-500 (Corona Electric Co., Ltd) with a measurement wavelength of 450 nm and a control wavelength of 660 nm. A ratio of absorbance (%) of each well with the test substance against the wells without the test substance was determined, and based on this ratio, the concentration of the test substance required to inhibit 50% of cell proliferation (IC50) was determined and the results are shown in Table 2.

T1 sequence (P17948 27-1338): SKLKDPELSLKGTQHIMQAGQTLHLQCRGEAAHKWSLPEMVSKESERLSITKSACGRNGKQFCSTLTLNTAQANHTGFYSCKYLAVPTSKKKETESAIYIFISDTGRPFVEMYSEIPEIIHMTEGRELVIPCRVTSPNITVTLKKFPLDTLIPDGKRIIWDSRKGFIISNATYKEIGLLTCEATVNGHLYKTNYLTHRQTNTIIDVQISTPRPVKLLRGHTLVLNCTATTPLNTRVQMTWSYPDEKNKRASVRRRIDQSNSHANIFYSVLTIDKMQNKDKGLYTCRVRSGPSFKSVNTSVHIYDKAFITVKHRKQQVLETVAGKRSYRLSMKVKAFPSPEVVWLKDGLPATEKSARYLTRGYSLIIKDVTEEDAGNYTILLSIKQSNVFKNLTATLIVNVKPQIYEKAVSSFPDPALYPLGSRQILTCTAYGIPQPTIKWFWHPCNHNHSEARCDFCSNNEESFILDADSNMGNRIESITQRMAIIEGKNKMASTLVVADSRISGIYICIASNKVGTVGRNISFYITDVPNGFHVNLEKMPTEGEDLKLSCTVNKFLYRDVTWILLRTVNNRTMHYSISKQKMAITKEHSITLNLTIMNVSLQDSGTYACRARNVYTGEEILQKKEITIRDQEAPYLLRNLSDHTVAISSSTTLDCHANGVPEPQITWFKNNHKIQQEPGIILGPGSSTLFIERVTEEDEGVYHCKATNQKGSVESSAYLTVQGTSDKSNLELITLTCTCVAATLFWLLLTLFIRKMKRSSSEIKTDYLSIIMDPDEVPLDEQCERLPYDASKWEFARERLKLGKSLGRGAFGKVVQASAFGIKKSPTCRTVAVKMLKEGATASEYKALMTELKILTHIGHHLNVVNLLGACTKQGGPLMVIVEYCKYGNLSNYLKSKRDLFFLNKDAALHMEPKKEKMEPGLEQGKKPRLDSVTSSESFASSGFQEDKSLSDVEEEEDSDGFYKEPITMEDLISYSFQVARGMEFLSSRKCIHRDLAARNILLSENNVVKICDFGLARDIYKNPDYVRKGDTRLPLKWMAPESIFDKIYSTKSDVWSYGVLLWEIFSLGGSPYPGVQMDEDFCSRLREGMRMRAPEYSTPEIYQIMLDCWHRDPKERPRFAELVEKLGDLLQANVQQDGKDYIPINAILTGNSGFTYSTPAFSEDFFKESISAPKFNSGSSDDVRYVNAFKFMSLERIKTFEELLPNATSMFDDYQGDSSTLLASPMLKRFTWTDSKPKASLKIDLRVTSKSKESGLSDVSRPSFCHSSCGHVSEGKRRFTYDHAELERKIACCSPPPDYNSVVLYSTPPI

SMILES	IC50 (VEGFR-1 (FLT 1))	IC50 (KIT)	IC50 [1]
O=C(Nc1cc(Oc2ccc(NC(=O)C3(C(=O)Nc4ccc(F)cc4)CC3)c(F)c2)ccn1)N1CCC1 [N-[4-({2-[(Azetidin-1-ylcarbonyl)amino]pyridin-4-yl}oxy)-2-fluorophenyl]-N′-(4-fluorophenyl)cyclopropane-1,1-dicarboxamide]	71 nM	380 nM	38 nM
O=C(Nc1cc(Oc2cc(F)c(NC(=O)C3(C(=O)Nc4ccc(F)cc4)CC3)cc2F)ccn1)N1CC(O)C1 [N-{2,5-Difluoro-4-[(2-{[(3-hydroxyazetidin-1-yl)carbonyl]amino}pyridin-4-yl)oxy]phenyl}-N′-(4-fluorophenyl)cyclopropane-1,1-dicarboxamide]	26 nM	370 nM	15 nM
CN1CCN(C2CCN(C(=O)Nc3cc(Oc4cc(F)c(NC(=O)C5(C(=O)Nc6ccc(F)cc6)CC5)cc4F)ccn3)CC2)CC1 [N-(2,5-Difluoro-4-{[2-({[4-(4-methylpiperazin-1-yl)piperidin-1-yl]carbonyl}amino)pyridin-4-yl]oxy}phenyl)-N′-(4-fluorophenyl)cyclopropane-1,1-dicarboxamide]	21 nM	350 nM	20 nM
O=C(Nc1cc(Oc2cc(F)c(NC(=O)C3(C(=O)Nc4ccc(F)cc4)CC3)cc2F)ccn1)N1CC(CO)C1 [N-(2,5-Difluoro-4-{[2-({[3-(hydroxymethyl)azetidin-1-yl]carbonyl}amino)pyridin-4-yl]oxy}phenyl)-N′-(4-fluorophenyl)cyclopropane-1,1-dicarboxamide]	14 nM	140 nM	5.5 nM
CN1CCC(N(C)C(=O)Nc2cc(Oc3cc(F)c(NC(=O)C4(C(=O)Nc5ccc(F)cc5)CC4)cc3F)ccn2)CC1 [N-(2,5-Difluoro-4-{[2-({[methyl(1-methylpiperidin-4-yl)amino]carbonyl}amino)pyridin-4-yl]oxy}phenyl)-N′-(4-fluorophenyl)cyclopropane-1,1-dicarboxamide]	12 nM	560 nM	21 nM
